Experiment: In vitro hydrolysis of functionalized phenolics in pH 7.4 buffer at reflux, monitored by TLC
Type: physicochemical
Conditions: reflux temp. (100° C.); 500 mg compound in 50 ml pH 7.4 buffer solution; TLC against original phenolic as control
Protocol: Selected compounds were examined for the rate of hydrolysis by conducting in vitro hydrolysis studies at reflux temp. (100° C.). For each experiment, 500 mg of a func-tionalized compound and 50 ml of pH 7.4 buffer solution (purchased from Aldrich Chemical) were charged into a 100 ml round bottom flask fitted with a condenser and the contents were refluxed. In vitro hydrolysis of the functionalized phenolics was monitored by thin layer chromatography (TLC) using corresponding starting material (original phenolic) as a control. In vitro hydrolysis was continued at reflux until the functionalized molecule hydrolyzed to the starting phenolic compound.

| time in which the functionalized compound was hydrolyzed to the starting phenolic compound | SMILES |
| --- | --- |
| 40 h | CC(Oc1ccc(N)cc1)C(=O)OCCOC(=O)C(C)Oc1ccc(N)cc1 (stereo not shown) [Example 32, 2-(4-Aminophenoxy)-propionic acid 2-[2-(4-aminophenoxy)-propionyloxy]-ethyl ester] |
| 8 h | COC(=O)COC(=O)COc1ccc(NC(C)=O)cc1 [Example 48, (4-Acetylaminophenoxy)acetic acid methoxycarbonyl methyl ester] |
| 3 h | COC(=O)COC(=O)COc1ccc(N)cc1 [Example 45, (4-Aminophenoxy)-acetic acid methoxycarbonylmethyl ester] |

| SMILES | time in which the functionalized compound was hydrolyzed to the starting phenolic compound |
| --- | --- |
| Nc1ccc(OCC(=O)OCCOC(=O)COc2ccc(N)cc2)cc1 [Example 25, (4-Amino-phenoxy)-acetic acid-2-[2-(4-amino-phenoxy)-acetoxy]-ethyl ester] | 11.5 h |
